What was measured:
[1] = Measurement of absorption spectrum and fluorescence excitation spectrum; format: physicochemical; conditions: for maximum absorption wavelength: 1.0 mg/ml, spectrophotometer 200 to 750 nm; for maximum excitation wavelength / maximum fluorescence wavelength: fluorescence spectrophotometer
Method: Measurement of an absorption spectrum and a fluorescence excitation spectrum of Fast Green FCF was performed. The Fast Green FCF (Wako Pure Chemical Industries, Ltd.) was adjusted to 1.0 mg/ml, and the light absorbance was continuously measured at a wavelength of from 200 to 750 nm using a spectrophotometer (manufactured by Shimadzu Corp., BioSpec-1600) to determine the wavelength at which the absorbance reached the maximum. The maximum absorption wavelength of 628 nm thus obtained was irradiated as an excitation wavelength, and the wavelength of the scattered light detected in the perpendicular direction to the light axis of the excitation light was measured using a fluorescence spectrophotometer (manufactured by Shimadzu Corp., RF-1500), thus to obtain a maximum excitation wavelength of 628 nm and a maximum fluorescence wavelength of 652 nm.

gastrointestinal lumen = assay: Perfusion through the heart with Guinea Green, observation of a frozen section; format: in vivo, mouse; conditions: 10 mg/mL, 600 μL perfused through the heart
Method: The gastrointestinal lumen was stained using Guinea Green, and the stainability was examined by observation of a frozen section.
Guinea Green (Sigma-Aldrich Corp., Guinea Green B) was prepared to 10 mg/mL with physiological saline, and was perfused through the heart of a mouse (ddY, 6 weeks old, male) in an amount of 600 μL.
Also, it was compared with another frozen section used to perform HE staining, and the sites capable of fluorescent observation by Guinea Green staining were characterized.
(§1) A confocal microscope was used for the observation, which was made at 20, 40 or 63 magnifications.

[2] = test system: esophagus part of a mouse; assay: Extracted esophagus stained, confocal microscope observation; conditions: 10 mg/mL, pH 7
Method: The esophagus part of a mouse (ddY, 11 weeks old, male) was extracted, stained using Brilliant Blue FCF, and observed with a confocal microscope (Leica Microsystems Corp., TCP-SP2).
The Brilliant Blue FCF used was prepared to 10 mg/mL using a 0.1 M sodium phosphate buffer solution (pH 7).
The imaging conditions were such that the pinhole diameter was 1.00 airy, and a lens of 20 magnifications was used.

large intestine = assay: Perfusion through the heart with Patent Blue, confocal observation of large intestine specimen and frozen section; format: in vivo, mouse
Method: Patent Blue was used for staining and observation with a confocal microscope. Patent Blue (Sigma-Aldrich Corp., Patent Blue VF) was prepared to 10 mg/mL with physiological saline, and was perfused through the heart of a mouse (ddY, 6 weeks old, male) to perform staining.
The mouse was subjected to laparotomy to extract the large intestine, and an observation was made for a specimen with a confocal system.
The imaging conditions were such that a lens of 20 magnifications was used, and the pinhole diameter was 1.00 airy. As the confocal microscope, TCP-SP2 manufactured by Leica Microsystems Corp. was used.
A frozen section prepared by slicing the mouse large intestine stained in Example 9 to approximately 6 μm was observed under fluorescence to observe the stainability. An adjacent frozen section was used to perform HE staining and was compared to characterize the sites where fluorescent observation was possible by Patent Blue staining.
as §1

mouse large intestine = assay: Tissue staining by perfusion method, confocal observation of extracted large intestine specimen; conditions: 1 mg/mL with physiological saline
Method: IndoCyanine Green (adjusted to 1 mg/mL with physiological saline), which is a medical contrast agent, was used to perform tissue staining. Mouse large intestine was stained by a perfusion method, and observation of an extracted specimen of the large intestine was performed using a confocal microscope (Leica Microsystems Corp., TCP-SP2).

**Q.** For `CCN(Cc1cccc(S(=O)(=O)O)c1)c1ccc(C(=C2C=CC(=[N+](CC)Cc3cccc(S(=O)(=O)O)c3)C=C2)c2ccccc2S(=O)(=O)[O-])cc1.N.N` [Alphazurine FG], which “can be excited at, for example” value [1] is on record?
**A.** 633 nm

**Q.** What about the fluorescence detected at [1] of the same molecule?
**A.** 643 nm

**Q.** And the maximum absorption wavelength [1]?
**A.** 630 nm

**Q.** What about the maximum excitation wavelength [1] of the same molecule?
**A.** 633 nm

**Q.** And the maximum fluorescence wavelength [1]?
**A.** 643 nm

**Q.** What does the source list for `CCN(Cc1cccc(S(=O)(=O)[O-])c1)c1ccc(C(=C2C=CC(=[N+](CC)Cc3cccc(S(=O)(=O)[O-])c3)C=C2)c2ccccc2)cc1.[Na+]` [Guinea Green B]?
**A.** fluorescence of frozen section (gastrointestinal lumen): the lumen side exhibited strong fluorescence; observation capability of the confocal system (gastrointestinal lumen): high; can be excited at, for example [1]: 624 nm; fluorescence detected at [1]: 635 nm; maximum absorption wavelength [1]: 620 nm; maximum excitation wavelength [1]: 624 nm; maximum fluorescence wavelength [1]: 635 nm

**Q.** Which results are given for `CCN(Cc1cccc(S(=O)(=O)[O-])c1)c1ccc(C(=C2C=CC(=[N+](CC)Cc3cccc(S(=O)(=O)[O-])c3)C=C2)c2ccccc2S(=O)(=O)[O-])cc1.[Na+].[Na+]` [Brilliant Blue FCF]?
**A.** fluorescent contrast in confocal images [2]: provide fluorescent contrast for the intercellular space of the esophagus epithelial cells; depth from the luminal surface of clear images ([2]; images at every 5.0 μm): up to 100 μm; can be excited at, for example [1]: 629 nm; fluorescence detected at [1]: 650 nm; maximum absorption wavelength [1]: 629 nm; maximum excitation wavelength [1]: 619 nm; maximum fluorescence wavelength [1]: 650 nm

**Q.** For Patent Blue VF, which “staining visible by naked eyes” value (large intestine; 10 mg/mL, 600 μL perfused through the heart) is on record?
**A.** the limbs were bluish in color to the extent of being visible by naked eyes

**Q.** And the “fluorescence of frozen section” value (large intestine; approximately 6 μm frozen section)?
**A.** strong fluorescence in the lumen

**Q.** And the “confocal observation of the tissue” value (large intestine; area 60 μm deep from the luminal surface)?
**A.** the lamina propria mucosae could be observed clear

**Q.** What about the observation capability (large intestine; frozen section under fluorescence) of the same molecule?
**A.** high

**Q.** And the “can be excited at, for example” value [1]?
**A.** 641 nm

**Q.** And the fluorescence detected at [1]?
**A.** 654 nm

**Q.** And the maximum absorption wavelength [1]?
**A.** 639 nm

**Q.** And the maximum excitation wavelength [1]?
**A.** 641 nm

**Q.** And the maximum fluorescence wavelength [1]?
**A.** 654 nm

**Q.** For `CCN(Cc1cccc(S(=O)(=O)O)c1)c1ccc(C(=C2C=CC(=[N+](CC)Cc3cccc(S(=O)(=O)O)c3)C=C2)c2ccc(S(=O)(=O)O)cc2)cc1.[Na+].[Na+]` [Light Green SF], which “can be excited at, for example” value [1] is on record?
**A.** 633 nm

**Q.** And the fluorescence detected at [1]?
**A.** 652 nm

**Q.** And the maximum absorption wavelength [1]?
**A.** 635 nm

**Q.** What about the maximum excitation wavelength [1] of the same molecule?
**A.** 633 nm

**Q.** And the maximum fluorescence wavelength [1]?
**A.** 652 nm

**Q.** Which “fluorescence intensity inside the tissue” value (mouse large intestine) does the source give for `CC1(C)C(/C=C/C=C/C=C/C=C2\N(CCCCS(=O)(=O)O)c3ccc4ccccc4c3C2(C)C)=[N+](CCCCS(=O)(=O)[O-])c2ccc3ccccc3c21` [IndoCyanine Green, reference compound] here?
**A.** the fluorescence intensity was very low

**Q.** What about the “fluorescence intensity (fluorescence spectrum)” value ([1]; compared with Fast Green FCF, FIG. 2) of the same molecule?
**A.** the fluorescence intensity is lower than that of the Fast Green FCF
